Here are results for two molecules from patent US20170165295A1, “COMPOSITION FOR PREVENTING, ALLEVIATING OR TREATING CONSTIPATION, CONTAINING HIGH HARDNESS MINERAL WATER PREPARED FROM DEEP OCEAN WATER OR DESALINATED GROUNDWATER” (ARIBIO INC., priority 2012, published 2017).

Counter-ions that a name gives are not always drawn. Marks after values point to notes of the source that are not given here.

Series [1] is described as follows: Body weight change of loperamide-induced constipated rats. As to the method: (§1) 6-week-old rats (SLC, Japan) were used for an experiment after acclimatization to new environments for 7 days. Five rats were raised per cage at 20-25° C. and 45-50% humidity. The light-dark cycle was 12 hr: 12 hr, and water and food were freely available. The rats were classified into six groups (nine rats per group, a total of 54 rats) based on the body weight thereof. Specific groups are as follows:
(§2) Administration of Test Material Magnesium hydroxide (Mg(OH)2; MagMill™) was purchased from Samnam Pharm. In order to protect test materials from light and moisture, the test materials were stored in a refrigerator at 4° C. The mineral water was orally administered at 10 ml/kg for each time, at an interval of 6 hours (30 ml/kg/day), three times a day, for a total of six days. The administration for each time was conducted 1 hour after administration of loperamide 3 mg/kg. Magnesium hydroxide was mixed with distilled water, and the mixture was orally administered once a day for a total of six days, and the same amount of distilled water was orally administered at the time of second and third administrations. Distilled water, instead of mineral water, was administered to groups 1 and 2.
(§3) In order to induce constipation, loperamide hydrochloride (Sigma, MO, U.S.) 3 mg/kg was mixed with saline water 5 ml/kg, and the mixture was orally administered to animals 1 hour before administration of the test material, once a day, for a total of six days. Detailed methods are disclosed in Bustos et al. Acta Gastroenterol Latinoam, 1991; 21:3-9 and Wintola et al. BMC Gastroenterol, 2010; 10:95, which are incorporated by reference into the present specification.
Body weight was measured once per day 1 day before the test material administration, at the day of the initiation of administration, and 1, 2, 3, 4, and 5 days after the initiation of administration, to verify the body weight change according to administration of the test material. All the animals were fasted (excluding water) for 5 days after the initiation of administration for one overnight in order to decrease the body weight difference due to feed ingestion and measure the intestinal charcoal transit ratio. In addition, the body weight gain was calculated by equation 1.
Body weight gain (g)=body weight at 6th administration last day−body weight at the day of the initiation of administration. [Equation 1]

The subject of series [2] is loperamide-induced constipated rats. The series can be described thus: Fecal parameters in loperamide-induced constipated rats. As to conditions: for Fecal dry-weights / Fecal wet-weights / Numbers of fecal pellets / Water contents of fecal pellets: collected at 4th administration day (24 hrs), mean ± S.D. of nine rats. In kind it is in vivo. As to the method:
as §1, §2, §3
The fecal pellets of each rat were collected 24 hours after the 4th administration day. The total number, wet weight, and water content of the fecal pellets were checked. The water content was calculated by equation 2 below:
Water content of fecal pellets (%)=((wet weight of fecal pellets−dry weight of fecal pellets)/wet weight of fecal pellets)×100 [Equation 2]
(§4) Multiple comparison tests of the groups with different dosages were conducted. Variance homogeneity was examined using the Levene test (Levene A, Clin Otalary, 1981; 6:145-51). […] In cases where significant deviations from variance homogeneity were observed by the Levene test, the non-parametric comparison test and Kruskal-Wallis H test were conducted. When a significant difference was observed by the Kruskal-Wallis H test, the Mann-Whitney U (MW) test was used to determine the significance of specific pairwise comparisons. Statistical analyses were conducted using SPSS (Release 14K, SPSS Inc. USA; Ludbrook, Clin Exp Pharmacol Physiol, 1997; 24:294-6). In addition, the percentage change between the normal group and loperamide control was calculated to identify the severity of induced constipation, and then, in order to evaluate the efficacy of the test materials, the percent change compared with the loperamide control was calculated by equations 4 and 5.
(§5) Percent change compared with normal group (%)=(((normal group data)−(loperamide control data)/normal group data)×100) [Equation 4]
(§6) Percentage change (%) compared with loperamide control=(((loperamide control data−test material administered rat data)/(loperamide control data))×100) [Equation 5]

The test system is the same in series [3]. Kind of series: Remnant fecal pellets in the colon of loperamide-induced constipated rats. It is filed as in vivo. How it is done:
as §1, §2, §3
The total number and mean thickness (short axis) of remnant fecal pellets in the colonic lumen were measured when the gastrointestinal charcoal transit ratio was measured.
as §4, §5, §6

The test system is the same in series [4]. Kind of series: Gastrointestinal charcoal transit ratio in loperamide-induced constipated rats. In kind it is in vivo. The following applies: for Gastrointestinal charcoal transit ratio / Length of charcoal meal transferred: during 30 min after charcoal meal, after 6th administration, mean ± S.D. of nine rats. How it is done:
as §1, §2, §3
The gastrointestinal propulsion of the charcoal meal was checked by the method disclosed in Sagar et al. BMC Complement Altern Med, 2005; 5:18, with minor modification. Prior to the experiment, animals were fasted for 18 hours (water supplied). Ten minutes after the 6th administration (last) of the test material, animals of each group were fed with 1 ml of charcoal meal (3% suspension of activated charcoal in 0.5% aqueous methylcellulose). Thirty minutes after charcoal meal ingestion, the animals of each group were sacrificed, and the total small intestine length (from pyloric sphincter to appendix) and the charcoal meal transit distance were measured. The gastrointestinal charcoal transit ratio was calculated by equation 3 below:
Charcoal transit ratio (%)=(([…])/total small intestine length)×100 [Equation 3]
as §4, §5, §6

Series [5] has the same test system. The series can be described thus: Histomorphometry of the colon and remnant fecal pellets in loperamide-induced constipated rats. In kind it is in vivo. As to conditions: for Colon mucosa thicknesses / Fecal pellet surface mucous thickness / Mucous producing cell numbers: at sacrifice, 6 days of administration, mean ± S.D. of nine rats; for Mucous producing cell numbers: colonic mucosa. As to the method: as §1, §2, §3
Histopathological assessment of the colonic mucosa and remnant fecal pellets in the colonic lumen was conducted by the method of Wu et al. J Ethnopharmacol, 2011; 134:406-13, with minor modification. In short, the distal colon fragment containing one fecal pellet was isolated using ligatures, removed, and immediately fixed with 10% formaldehyde (when the gastrointestinal charcoal transit ratio was measured). The fixed tissue segments were paraffin-embedded, and sliced into 3 μm-thickness cross sections. The sliced samples were stained with Alcian blue at pH 2.5. Five tissue segments per group were prepared, and histological profiles thereof were interpreted. The histopathologist was blinded to the group distributions at the time of analysis.
Histomorphometry: The mean thickness of the mucosal layers at the fecal surface (μm/fecal pellet), mucous-producing cell number (cells/mm^2) per unit area in the colonic mucosa, and the colonic mucosal thickness (μm/colon) were measured by using an automated image analyzer (DMI-300, DMI, Korea) under a light microscope.
as §4, §5

Setting [6] is: loperamide control 3 mg/kg, percent change compared with the normal group.
The mark [7] stands for this setting: at sacrifice after 6th administration, 18 h fasting, mean ± S.D. of nine rats.
Where [8] appears, read: percent change compared with the loperamide control.

As for `CN(C)C(=O)C(CCN1CCC(O)(c2ccc(Cl)cc2)CC1)(c1ccccc1)c1ccccc1` [Loperamide, loperamide hydrochloride], the “significant changes in body weight and weight gain” value in series [1] (compared with the normal group and loperamide control) is listed as “not observed”. Further, the “change in weight gain during the administration period” value in series [1] (loperamide control 3 mg/kg, percent change compared with normal group) is recorded as −7.92%. Moreover, in series [2], the Fecal dry-weights is on record as 4.17 ± 0.63^a g/24 hr/rat, the Fecal wet-weights is recorded as 7.65 ± 1.25^d g/24 hr/rat, the “Numbers of fecal pellets” value is reported as 45.22 ± 4.97^d and the “Water contents of fecal pellets” value is 45.29 ± 4.06^a %. In series [2] (setting [6]), the “change in number of fecal pellets for 24 hours, 4 days after administration” value is recorded as −27.45% and the “change in water content in fecal pellets for 24 hours, 4 days after administration” value is given as −17.47%. Moreover, in series [3] (setting [7]), the “Remnant fecal pellets in the colon: Numbers” value was 3.89 ± 1.05^a. In addition, in series [3] (setting [6]), the “change in mean diameter of remnant fecal pellets in the colon” value was 57.96% and the “change in number of remnant fecal pellets in the colon” value is reported as 118.75%. In series [4], the “Gastrointestinal charcoal transit ratio” value is listed as 61.20 ± 5.98^a % and the “Length of charcoal meal transferred” value is 74.21 ± 6.41^a cm. The “change in intestinal charcoal transit ratio” value in series [4] (setting [6]) is reported as −20.05%. Also, in series [5], the Colon mucosa thicknesses is listed as 104.38 ± 10.79^c μm, the “Fecal pellet surface mucous thickness” value is 5.84 ± 2.53^a μm and the “Mucous producing cell numbers” value was 179.00 ± 46.31^c cells/mm^2. Also, in series [5] (setting [6]), the “change in colon mucosa thickness” value is −70.97%, the “change in fecal pellet surface mucosal thickness in the colon” value is listed as −89.93% and the “change in mucous-producing cell number per unit area in the colonic mucosa” value is −72.40%.
Take `[Mg+2].[OH-].[OH-]` [Mg(OH)2, Magnesium hydroxide]: in series [1] (after overnight fasting, loperamide 3 mg/kg, Mg(OH)2 200 mg/kg/day or mineral water 30 ml/kg/day oral, mean ± S.D. of nine rats), the “Body weights at Last (6th) administration [B]” value is given as 241.67 ± 10.36 g. Also, the “Body weight gains [B − A]” value in series [1] (last (6th) administration minus initiation of administration, mean ± S.D. of nine rats) is given as 22.44 ± 4.19 g. In addition, the “change in weight gain during the administration period” value in series [1] (setting [8]) is reported as 8.60%. Also, the “Body weights at Initiation of administration [A]” value in series [1] (rats given loperamide 3 mg/kg, Mg(OH)2 200 mg/kg/day or mineral water 30 ml/kg/day oral, 6 days, mean ± S.D. of nine rats) amounted to 219.22 ± 8.79 g. The “Body weights at Fifth administration” value in series [1] (rats given loperamide 3 mg/kg, Mg(OH)2 200 mg/kg/day or mineral water 30 ml/kg/day oral, mean ± S.D. of nine rats) came out at 260.33 ± 12.38 g. In addition, in series [2], the Fecal dry-weights was 4.21 ± 0.55^a g/24 hr/rat, the Fecal wet-weights is given as 9.18 ± 0.88^dg g/24 hr/rat, the “Numbers of fecal pellets” value is recorded as 52.33 ± 4.21^ef and the “Water contents of fecal pellets” value is given as 53.50 ± 9.99^c %. In addition, in series [2] (setting [8]), the “change in number of fecal pellets for 24 hours, 4 days after administration” value is on record as 17.94% and the “change in water content in fecal pellets for 24 hours, 4 days after administration” value worked out at 18.12%. Also, the “Remnant fecal pellets in the colon: Numbers” value in series [3] (setting [7]) is 1.89 ± 0.93^c. In series [3] (setting [8]), the “change in mean diameter of remnant fecal pellets in the colon” value was −18.76% and the “change in number of remnant fecal pellets in the colon” value is reported as −51.43%. The “Remnant fecal pellets in the colon: Mean thicknesses” value in series [3] (short axis, at sacrifice after 6th administration, 18 h fasting, mean ± S.D. of nine rats) is listed as 5.26 ± 0.38^c μm. In series [4], the “Gastrointestinal charcoal transit ratio” value is on record as 66.76 ± 3.47^ac % and the “Length of charcoal meal transferred” value is 83.33 ± 6.06^a cm. Moreover, the “change in intestinal charcoal transit ratio” value in series [4] (setting [8]) amounted to 9.10%. In series [5], the Colon mucosa thicknesses is reported as 164.16 ± 22.31^cd μm, the “Fecal pellet surface mucous thickness” value is 24.33 ± 7.82^ab μm and the “Mucous producing cell numbers” value is on record as 313.56 ± 42.27^cd cells/mm^2. For the same molecule, in series [5] (setting [8]), the “change in colon mucosa thickness” value was 57.27%, the “change in fecal pellet surface mucosal thickness in the colon” value was 316.22% and the “change in mucous-producing cell number per unit area in the colonic mucosa” value was 75.17%.
